Laboratory results published in the supplement of paper PMC10307832.

Legend:
Experiment in all cases: relative viability (nuclei count vs DMSO), 5 days (fraction); higher = more cells survive
[1] = compound: CCC1=CN=CN=C1N2CCN(CC2)CC3=NC4=C(N3)C=C(C=C4)C(F)(F)F + Cc1cc(Nc2cc(N3CCN(C)CC3)nc(Sc3ccc(NC(=O)C4CC4)cc3)n2)n[nH]1 [Tozasertib] (partner 0.1 µM)
How it was run: (§1)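 Relative viability divides the nuclei count in treated wells by that in vehicle wells. Lung cancer cell lines were seeded in 1536-well plates, dosed by pin tool the next day, and fixed and stained after 5 days in one step with final 0.05% Triton X-100, 1% formaldehyde and 1 ug/ml Hoechst. Dosing was a single drug or a fixed anchor-drug dose plus five library-drug doses (not always all listed) in √10 steps, and values are medians of duplicate plates imaged at 4×.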

[2] = compound: CCC1=CN=CN=C1N2CCN(CC2)CC3=NC4=C(N3)C=C(C=C4)C(F)(F)F + O=C(CCCCCCC(=O)Nc1ccccc1)NO [Vorinostat] (partner 1 µM)
How it was run: as §1

[3] = compound: CCn1c(-c2nonc2N)nc2cnc(Oc3cccc(NC(=O)c4ccc(OCCN5CCOCC5)cc4)c3)cc21 + C[C@]1(O)C[C@@H](c2nc(-c3ccc4ccc(-c5ccccc5)nc4c3)c3c(N)nccn32)C1 [Linsitinib] (partner 1 µM)
How it was run: as §1

Mirin + Phenformin = compound: N=C1NC(=O)/C(=C/c2ccc(O)cc2)S1 [Mirin] + N=C(N)NC(=N)NCCc1ccccc1 [Phenformin] (partner 250 µM)
How it was run: as §1

Cell Line	relative viability ([1]; first compound 0.04 µM)	relative viability ([1]; first compound 0.1265 µM)	relative viability ([1]; first compound 0.4 µM)	relative viability ([1]; first compound 1.265 µM)	relative viability ([1]; first compound 4 µM)	relative viability ([2]; first compound 0.04 µM)	relative viability ([2]; first compound 0.1265 µM)	relative viability ([2]; first compound 0.4 µM)	relative viability ([2]; first compound 1.265 µM)	relative viability ([2]; first compound 4 µM)	relative viability ([3]; first compound 0.04 µM)	relative viability ([3]; first compound 0.1265 µM)	relative viability ([3]; first compound 0.4 µM)	relative viability ([3]; first compound 1.265 µM)	relative viability ([3]; first compound 4 µM)	relative viability (Mirin + Phenformin; first compound 0.25 µM)	relative viability (Mirin + Phenformin; first compound 0.7906 µM)	relative viability (Mirin + Phenformin; first compound 2.5 µM)	relative viability (Mirin + Phenformin; first compound 7.906 µM)	relative viability (Mirin + Phenformin; first compound 25 µM)
201T	0.923	0.936	0.9	0.846	0.919	0.923	0.889	0.819	0.817	1.06	1.01	1.05	1.03	1.03	1.1	0.463	0.494	0.454	0.463	0.568
A549	–	–	–	–	–	–	–	–	–	–	0.726	0.662	0.733	0.178	0.319	0.129	0.138	0.159	0.189	0.235
A-427	0.209	0.218	0.21	0.174	0.177	0.776	0.836	0.794	0.721	0.809	1.2	1.16	1.15	1.06	1.06	0.311	–	0.363	0.266	0.348
ABC-1	0.176	0.172	0.172	0.152	0.196	–	–	0.989	0.84	1.03	1.15	0.906	0.687	0.574	0.5	0.263	0.21	0.269	0.257	0.206
BEN	0.462	0.528	0.559	0.433	0.477	0.556	0.566	0.565	0.457	0.464	0.931	0.935	0.799	0.311	0.313	0.255	0.288	0.266	0.248	0.273
CAL-12T	0.367	0.294	0.328	0.429	0.289	0.664	0.8	0.623	0.782	0.568	1.12	1.01	0.768	0.704	0.731	0.627	–	0.665	0.591	0.657
COR-L23	0.219	0.207	0.201	0.157	0.183	0.464	0.523	0.404	0.44	0.462	1	0.785	0.521	0.172	0.148	0.465	0.46	0.45	0.469	0.481
COR-L 105	0.374	0.34	0.327	0.395	0.379	0.811	0.879	0.802	0.601	1.05	0.774	0.766	0.862	0.451	0.391	0.551	0.495	0.479	0.583	0.462
Calu-6	–	–	–	–	–	–	–	–	–	–	0.964	0.94	0.616	0.524	0.536	–	–	–	–	–
ChaGo-K-1	0.206	0.256	0.233	0.195	0.224	0.792	0.75	0.712	0.648	0.824	–	–	–	–	–	0.485	0.428	0.49	0.423	0.324
EBC-1	–	–	–	–	–	–	–	–	–	–	0.852	1.09	0.78	0.79	0.876	–	–	–	–	–
EKVX	0.477	0.367	0.346	–	0.445	0.767	0.678	0.739	0.575	0.659	1.42	1.02	1.08	0.813	0.976	0.251	0.238	0.246	0.224	0.258
EMC-BAC-2	0.293	0.3	0.279	–	0.268	–	0.415	0.422	0.386	0.484	1.03	0.839	0.814	0.834	0.877	0.57	0.57	0.559	0.401	0.49
EPLC-272H	0.257	0.225	0.262	0.327	0.332	0.311	0.598	0.373	0.392	0.351	1.35	1.12	1.14	1.1	1.18	0.354	–	0.307	0.254	0.234
H3255	0.63	0.413	0.674	0.436	0.715	0.946	0.576	0.929	0.762	0.754	1.2	0.952	0.99	0.62	0.768	0.33	0.379	0.408	0.271	0.361
HARA	0.106	0.108	0.0892	–	0.0831	0.542	0.492	0.57	0.556	0.466	1.04	0.733	1	0.634	0.698	0.536	–	0.467	0.475	0.36
HCC-15	0.444	0.357	0.381	0.449	0.391	0.864	0.831	0.789	0.76	0.82	1.15	0.88	0.901	0.825	0.883	0.495	0.478	0.446	0.431	0.426
HCC-44	0.955	0.962	0.905	0.597	1.06	1.01	1.06	1.09	1.17	1.02	0.671	0.709	0.684	0.538	0.509	0.165	0.102	0.126	0.213	0.314
HCC-78	0.572	0.549	0.446	0.434	0.376	0.528	0.405	0.47	0.4	0.409	0.673	0.498	0.551	0.664	0.621	0.661	0.616	0.867	0.571	0.793
